ChEMBL document CHEMBL1955863, “Intramolecular hydrogen bonding: a potential strategy for more bioavailable inhibitors of neuronal nitric oxide synthase” (Bioorg Med Chem, 2012)
pIC50: −log10 of the molar value.

Experiments:
[1] = Selectivity ratio of Ki for bovine eNOS to Ki for rat nNOS
[2] = Selectivity ratio of Ki for mouse iNOS to Ki for rat nNOS
Nitric oxide synthase 1 [3] = biological target: T1, Nitric oxide synthase 1 (Rattus norvegicus, UniProt P29476); experiment: Inhibition of rat nNOS expressed in HEK293T cells preincubated for 30 mins prior A23187-induced activation measured after 6 hrs by Griess assay; format: cell-based, HEK-293T
T1 sequence (P29476 whole entry): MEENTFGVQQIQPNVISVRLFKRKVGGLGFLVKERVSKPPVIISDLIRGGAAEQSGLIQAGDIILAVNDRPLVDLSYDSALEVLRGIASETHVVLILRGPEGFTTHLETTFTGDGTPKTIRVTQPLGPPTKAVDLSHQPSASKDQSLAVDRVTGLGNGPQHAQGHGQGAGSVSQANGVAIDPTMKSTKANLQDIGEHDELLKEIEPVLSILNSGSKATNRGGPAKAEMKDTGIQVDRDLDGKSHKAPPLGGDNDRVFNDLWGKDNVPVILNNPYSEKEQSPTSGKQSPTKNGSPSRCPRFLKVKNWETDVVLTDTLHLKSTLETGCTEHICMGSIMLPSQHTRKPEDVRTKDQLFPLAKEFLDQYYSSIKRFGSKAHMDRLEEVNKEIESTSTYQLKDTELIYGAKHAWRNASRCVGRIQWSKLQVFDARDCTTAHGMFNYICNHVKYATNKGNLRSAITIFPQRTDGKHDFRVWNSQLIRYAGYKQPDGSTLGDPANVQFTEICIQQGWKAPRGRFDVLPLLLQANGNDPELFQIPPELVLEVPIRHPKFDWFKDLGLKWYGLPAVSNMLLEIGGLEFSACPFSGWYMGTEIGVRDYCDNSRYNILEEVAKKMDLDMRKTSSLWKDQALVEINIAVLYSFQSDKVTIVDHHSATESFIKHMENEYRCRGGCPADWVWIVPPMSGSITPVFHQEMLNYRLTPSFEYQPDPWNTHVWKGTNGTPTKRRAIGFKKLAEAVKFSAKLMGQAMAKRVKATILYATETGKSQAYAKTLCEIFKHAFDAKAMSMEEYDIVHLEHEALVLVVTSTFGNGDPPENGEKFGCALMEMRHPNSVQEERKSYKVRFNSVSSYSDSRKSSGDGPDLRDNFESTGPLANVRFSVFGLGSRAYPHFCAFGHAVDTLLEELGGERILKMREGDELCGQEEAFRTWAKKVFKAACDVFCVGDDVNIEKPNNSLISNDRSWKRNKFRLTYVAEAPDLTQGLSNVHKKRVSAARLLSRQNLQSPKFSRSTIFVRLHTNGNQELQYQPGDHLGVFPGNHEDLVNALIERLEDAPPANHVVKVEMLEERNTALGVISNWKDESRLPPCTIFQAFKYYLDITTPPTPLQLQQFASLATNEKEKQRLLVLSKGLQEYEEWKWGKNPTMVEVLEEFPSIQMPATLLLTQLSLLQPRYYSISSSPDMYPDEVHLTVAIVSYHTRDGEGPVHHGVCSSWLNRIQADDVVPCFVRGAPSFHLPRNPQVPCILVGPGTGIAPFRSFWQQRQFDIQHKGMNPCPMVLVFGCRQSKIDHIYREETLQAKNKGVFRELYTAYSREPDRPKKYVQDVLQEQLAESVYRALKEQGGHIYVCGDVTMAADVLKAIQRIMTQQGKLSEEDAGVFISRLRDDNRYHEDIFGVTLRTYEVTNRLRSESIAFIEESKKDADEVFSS

Nitric oxide synthase 1 [4] = biological target: T1, Nitric oxide synthase 1; experiment: Inhibition of recombinant rat nNOS expressed in Escherichia coli by hemoglobin capture assay

Row | Structure (SMILES) | Ratio Ki [1] | Ratio Ki [2] | pIC50 (Nitric oxide synthase 1 [3]) | pIC50 (Nitric oxide synthase 1 [4])
1 | Cc1cc(N)nc(C[C@H]2CNC[C@H]2OCCNCc2ccccc2F)c1 | 98 | 105 | 4.96 | –
2 | Cc1cc(N)nc(C[C@H]2CNC[C@H]2OCCNCc2ccco2)c1 | 169 | 92 | 4.00 | –
3 | Cc1cc(C)nc(N)c1 | – | – | 4.60 | 7.30
4 | COc1ccccc1CNCCO[C@@H]1CNC[C@@H]1Cc1cc(C)cc(N)n1 | 93 | 139 | 4.66 | –
5 | Cc1cc(N)nc(C[C@H]2CNC[C@H]2OCCNCc2ccccc2O)c1 | 93 | 143 | 4.37 | –
